{
  "source": "PubChem BioAssay AID1259409",
  "about": "(Chemical Carcinogenesis Research Information System (CCRIS), 2018)",
  "origin": "cited, not measured here",
  "test_system": "rodent chemically induced tumor inhibition, incidence and multiplicity",
  "experiment": "CCRIS tumor inhibitor studies",
  "conditions": "Route [Inhibitor]: ORAL, Species: RAT, Promoter: NONE USED",
  "data": [
    {"smiles": "O=C1O[C@H]([C@@H](O)CO)C(O)=C1O", "values": [
      {"measurement": "tumour outcome (control, treated, inhibition, significance)", "setting": "Carcinogen: N-ETHYL-N-(4-HYDROXYBUTYL)NITROSAMINE, 54897-62-0, Dose [Inhibitor]: 5% IN BASAL DIET ADMINISTERED SIMULTANEOUSLY WITH CARCINOGEN DOSE FOR 20 WK (STUDY DURATION: 20 WK), Strain/Sex: F344/MALE, Target Tissue: Type of Lesion: BLADDER: PAPILLOMA, Dose [Carcinogen]: 0.021% IN DRINKING WATER FOR 20 WK", "result": "14/15 (93%), 12/15 (80%), 14%, not significant"},
      {"measurement": "tumour outcome (control, treated, inhibition, significance)", "setting": "Carcinogen: N-METHYL-N-NITROSOUREA, 684-93-5, Dose [Inhibitor]: 0, 5% IN DIET BEGINNING POST CARCINOGEN TREATMENT AND CONTINUING FOR 23 WK (STUDY DURATION: 25 WK), Strain/Sex: F344/MALE, Target Tissue: Type of Lesion: FORESTOMACH: PAPILLOMA, Dose [Carcinogen]: 50 MG/KG 4/2 WK", "result": "8/17 (47%), 7/20 (35%), 26%, not calculated"},
      {"measurement": "tumour outcome (control, treated, inhibition, significance)", "setting": "Carcinogen: N-METHYL-N-NITROSOUREA, 684-93-5, Dose [Inhibitor]: 0, 5% IN DIET BEGINNING POST CARCINOGEN TREATMENT AND CONTINUING FOR 23 WK (STUDY DURATION: 25 WK), Strain/Sex: F344/MALE, Target Tissue: Type of Lesion: FORESTOMACH: SQUAMOUS CELL CARCINOMA, Dose [Carcinogen]: 50 MG/KG 4/2 WK", "result": "2/17 (12%), 2/20 (10%), 17%, not calculated"},
      {"measurement": "tumour outcome (control, treated, inhibition, significance)", "setting": "Carcinogen: N-METHYL-N-NITROSOUREA, 684-93-5, Dose [Inhibitor]: 0, 5% IN DIET BEGINNING POST CARCINOGEN TREATMENT AND CONTINUING FOR 23 WK (STUDY DURATION: 25 WK), Strain/Sex: F344/MALE, Target Tissue: Type of Lesion: HEMATOPOIETIC SYSTEM: LYMPHOMA OR LEUKEMIA, Dose [Carcinogen]: 50 MG/KG 4/2 WK", "result": "3/17 (18%), 4/20 (20%), -11%, not calculated"},
      {"measurement": "tumour outcome (control, treated, inhibition, significance)", "setting": "Carcinogen: N-METHYL-N-NITROSOUREA, 684-93-5, Dose [Inhibitor]: 0, 5% IN DIET BEGINNING POST CARCINOGEN TREATMENT AND CONTINUING FOR 23 WK (STUDY DURATION: 25 WK), Strain/Sex: F344/MALE, Target Tissue: Type of Lesion: SMALL INTESTINE: ADENOCARCINOMA, Dose [Carcinogen]: 50 MG/KG 4/2 WK", "result": "9/17 (53%), 0/20 (0%), 100%, not calculated"},
      {"measurement": "tumour outcome (control, treated, inhibition, significance)", "setting": "Carcinogen: N-METHYL-N-NITROSOUREA, 684-93-5, Dose [Inhibitor]: 0, 5% IN DIET BEGINNING POST CARCINOGEN TREATMENT AND CONTINUING FOR 23 WK (STUDY DURATION: 25 WK), Strain/Sex: F344/MALE, Target Tissue: Type of Lesion: SMALL INTESTINE: ADENOMA, Dose [Carcinogen]: 50 MG/KG 4/2 WK", "result": "10/17 (59%), 16/20 (80%), -36%, not calculated"},
      {"measurement": "tumour outcome (control, treated, inhibition, significance)", "setting": "Carcinogen: N-METHYL-N-NITROSOUREA, 684-93-5, Dose [Inhibitor]: 0, 5% IN DIET BEGINNING POST CARCINOGEN TREATMENT AND CONTINUING FOR 23 WK (STUDY DURATION: 25 WK), Strain/Sex: F344/MALE, Target Tissue: Type of Lesion: THYROID: ADENOCARCINOMA, Dose [Carcinogen]: 50 MG/KG 4/2 WK", "result": "1/17 (6%), 0/20 (0%), 100%, not calculated"},
      {"measurement": "tumour outcome (control, treated, inhibition, significance)", "setting": "Carcinogen: N-METHYL-N-NITROSOUREA, 684-93-5, Dose [Inhibitor]: 0, 5% IN DIET BEGINNING POST CARCINOGEN TREATMENT AND CONTINUING FOR 23 WK (STUDY DURATION: 25 WK), Strain/Sex: F344/MALE, Target Tissue: Type of Lesion: THYROID: ADENOMA, Dose [Carcinogen]: 50 MG/KG 4/2 WK", "result": "3/17 (18%), 6/20 (30%), -67%, not calculated"},
      {"measurement": "tumour outcome (control, treated, inhibition, significance)", "setting": "Carcinogen: N-METHYL-N-NITROSOUREA, 684-93-5, Dose [Inhibitor]: 0, 5% IN DIET BEGINNING POST CARCINOGEN TREATMENT AND CONTINUING FOR 23 WK (STUDY DURATION: 25 WK), Strain/Sex: F344/MALE, Target Tissue: Type of Lesion: TONGUE: PAPILLOMA, Dose [Carcinogen]: 50 MG/KG 4/2 WK", "result": "2/17 (12%), 4/20 (20%), -67%, not calculated"},
      {"measurement": "tumour outcome (control, treated, inhibition, significance)", "setting": "Carcinogen: N-METHYL-N-NITROSOUREA, 684-93-5, Dose [Inhibitor]: 0, 5% IN DIET BEGINNING POST CARCINOGEN TREATMENT AND CONTINUING FOR 23 WK (STUDY DURATION: 25 WK), Strain/Sex: F344/MALE, Target Tissue: Type of Lesion: TONGUE: SQUAMOUS CELL CARCINOMA, Dose [Carcinogen]: 50 MG/KG 4/2 WK", "result": "2/17 (12%), 2/20 (10%), 17%, not calculated"},
      {"measurement": "tumour outcome (control, treated, inhibition, significance)", "setting": "Carcinogen: N-METHYL-N-NITROSOUREA, 684-93-5, Dose [Inhibitor]: 0, 5% IN DIET BEGINNING POST CARCINOGEN TREATMENT AND CONTINUING FOR 23 WK (STUDY DURATION: 25 WK), Strain/Sex: F344/MALE, Target Tissue: Type of Lesion: URINARY BLADDER: PAPILLOMA, Dose [Carcinogen]: 50 MG/KG 4/2 WK", "result": "2/17 (12%), 10/20 (50%), -316%, not calculated"},
      {"measurement": "outcome", "setting": "Carcinogen: N-METHYL-N-NITROSOUREA, 684-93-5, Dose [Inhibitor]: 0, 5% IN DIET BEGINNING POST CARCINOGEN TREATMENT AND CONTINUING FOR 23 WK (STUDY DURATION: 25 WK), Strain/Sex: F344/MALE, Target Tissue: Type of Lesion: URINARY BLADDER: TRANSITIONAL CELL CARCINOMA, Dose [Carcinogen]: 50 MG/KG 4/2 WK", "result": "0/17 (0%), 2/20 (10%), -100%, not calculated"},
      {"measurement": "tumour outcome (control, treated, inhibition, significance)", "setting": "Carcinogen: N-METHYL-N-NITROSOUREA, 684-93-5, Dose [Inhibitor]: 1% IN 20% FAT DIET DAILY STARTING 2 WK BEFORE START OF CARCINOGEN TREATMENT AND CONTINUING FOR DURATION OF STUDY (STUDY, Strain/Sex: F344/FEMALE, Target Tissue: Type of Lesion: COLON: ADENOMA, ADENOCARCINOMA, Dose [Carcinogen]: 2 MG 2/WK FOR 2 WK", "result": "42%, 46%, -10%, not significant"}
    ]}
  ]
}
